Measured values from patent US10238670B2, “9-aminomethyl minocycline compounds and methods of use thereof in urinary tract infection (UTI) treatment” (Paratek Pharmaceuticals, Inc., priority 2016, dated 2019).

Key:
Experiment in all cases: In vitro MIC, 2010 surveillance isolates
MRSA = format: cell-based
E. faecalis VNS = format: cell-based
K. pneumoniae ESBL− = format: cell-based, Klebsiella pneumoniae
E. faecium VS = format: cell-based
Enterobacter spp = format: cell-based
E. faecium VNS = format: cell-based
E. coli ESBL+ = format: cell-based, Escherichia coli
K. pneumoniae ESBL+ = format: cell-based, Klebsiella pneumoniae
MR CoNS = format: cell-based, Coagulase-Negative Staphylococcus; conditions: for % R (resistance): Eucast breakpoints
K. oxytoca = format: cell-based
Acinetobacter spp = format: cell-based; conditions: for range of MICs (N <10, shown instead of MIC90): N=9
E. faecalis VS = format: cell-based
MSSA = format: cell-based
A. baumanii = format: cell-based
E. cloacae CeftazR = format: cell-based
E. coli ESBL− = format: cell-based, Escherichia coli
E. cloacae CeftazS = format: cell-based

CN(C)c1cc(NC(=O)CNC(C)(C)C)c(O)c2c1C[C@H]1C[C@H]3[C@H](N(C)C)C(O)=C(C(N)=O)C(=O)[C@@]3(O)C(O)=C1C2=O [Tigecycline]
0.5 µg/mL: MIC90 (K. pneumoniae ESBL−; Asia/Pac, N=189) | MIC90 (K. pneumoniae ESBL−; Europe, N=361) | MIC90 (K. pneumoniae ESBL−; L. Amer, N=160) | MIC90 (K. pneumoniae ESBL−; N America, N=671) | MIC90 (Enterobacter spp; L. Amer, N=42) | MIC90 (Enterobacter spp; N America, N=101) | MIC90 (E. coli ESBL+; Europe, N=274) | MIC90 (K. oxytoca; Asia/Pac, N=17) | MIC90 (K. oxytoca; Europe, N=158) | MIC90 (K. oxytoca; N America, N=177) | MIC90 (Acinetobacter spp; N America, N=42) | MIC90 (E. cloacae CeftazR; Asia/Pac, N=63) | MIC90 (E. cloacae CeftazR; Europe, N=72) | MIC90 (E. cloacae CeftazS; Asia/Pac, N=100) | MIC90 (E. cloacae CeftazS; Europe, N=183) | MIC90 (E. cloacae CeftazS; N America, N=210)
0%: % R (resistance) (MRSA; Asia/Pac, Eucast breakpoints) | % R (resistance) (MRSA; Europe, Eucast breakpoints) | % R (resistance) (MRSA; L. Amer, CLSI breakpoints) | % R (resistance) (MRSA; N America, CLSI breakpoints) | % R (resistance) (E. faecalis VNS; Europe, Eucast breakpoints) | % R (resistance) (E. faecalis VNS; L. Amer, CLSI breakpoints) | % R (resistance) (E. faecalis VNS; N America, CLSI breakpoints) | % R (resistance) (K. pneumoniae ESBL−; L. Amer, CLSI breakpoints) | % R (resistance) (K. pneumoniae ESBL−; N America, CLSI breakpoints) | % R (resistance) (E. faecium VS; Asia/Pac, Eucast breakpoints) | % R (resistance) (E. faecium VS; Europe, Eucast breakpoints) | % R (resistance) (E. faecium VS; L. Amer, CLSI breakpoints) | % R (resistance) (E. faecium VS; N America, CLSI breakpoints) | % R (resistance) (Enterobacter spp; L. Amer, CLSI breakpoints) | % R (resistance) (Enterobacter spp; N America, CLSI breakpoints) | % R (resistance) (E. faecium VNS; Asia/Pac, Eucast breakpoints) | % R (resistance) (E. faecium VNS; Europe, Eucast breakpoints) | % R (resistance) (E. faecium VNS; L. Amer, CLSI breakpoints) | % R (resistance) (E. faecium VNS; N America, CLSI breakpoints) | % R (resistance) (E. coli ESBL+; Asia/Pac, Eucast breakpoints) | % R (resistance) (E. coli ESBL+; Europe, Eucast breakpoints) | % R (resistance) (E. coli ESBL+; L. Amer, CLSI breakpoints) | % R (resistance) (E. coli ESBL+; N America, CLSI breakpoints) | % R (resistance) (K. pneumoniae ESBL+; L. Amer, CLSI breakpoints) | % R (resistance) (K. pneumoniae ESBL+; N America, CLSI breakpoints) | % R (resistance) (MR CoNS; Asia/Pac) | % R (resistance) (MR CoNS; Europe) | % R (resistance) (K. oxytoca; Europe, Eucast breakpoints) | % R (resistance) (K. oxytoca; L. Amer, CLSI breakpoints) | % R (resistance) (K. oxytoca; N America, CLSI breakpoints) | % R (resistance) (E. faecalis VS; Asia/Pac, Eucast breakpoints) | % R (resistance) (E. faecalis VS; Europe, Eucast breakpoints) | % R (resistance) (E. faecalis VS; L. Amer, CLSI breakpoints) | % R (resistance) (E. faecalis VS; N America, CLSI breakpoints) | % R (resistance) (MSSA; Asia/Pac, Eucast breakpoints) | % R (resistance) (MSSA; Europe, Eucast breakpoints) | % R (resistance) (MSSA; L. Amer, CLSI breakpoints) | % R (resistance) (MSSA; N America, CLSI breakpoints) | % R (resistance) (E. cloacae CeftazR; Europe, Eucast breakpoints) | % R (resistance) (E. cloacae CeftazR; L. Amer, CLSI breakpoints) | % R (resistance) (E. cloacae CeftazR; N America, CLSI breakpoints) | % R (resistance) (E. coli ESBL−; Asia/Pac, Eucast breakpoints) | % R (resistance) (E. coli ESBL−; Europe, Eucast breakpoints) | % R (resistance) (E. coli ESBL−; L. Amer, CLSI breakpoints) | % R (resistance) (E. coli ESBL−; N America, CLSI breakpoints) | % R (resistance) (E. cloacae CeftazS; Europe, Eucast breakpoints) | % R (resistance) (E. cloacae CeftazS; L. Amer, CLSI breakpoints) | % R (resistance) (E. cloacae CeftazS; N America, CLSI breakpoints)
3.2%: % R (resistance) (K. pneumoniae ESBL+; Asia/Pac, Eucast breakpoints)
0.7%: % R (resistance) (K. pneumoniae ESBL+; Europe, Eucast breakpoints)
≤0.03-0.25: range of MICs (N <10, shown instead of MIC90) (E. faecalis VNS; Europe, N=8)
≤0.03-1: range of MICs (N <10, shown instead of MIC90) (Acinetobacter spp; Asia/Pac)
3.8%: % R (resistance) (Enterobacter spp; Asia/Pac, Eucast breakpoints)
≤0.03-0.06: range of MICs (N <10, shown instead of MIC90) (E. faecalis VNS; L. Amer, N=7)
5.9%: % R (resistance) (K. oxytoca; Asia/Pac, Eucast breakpoints)
1.6%: % R (resistance) (E. cloacae CeftazR; Asia/Pac, Eucast breakpoints)
0.3%: % R (resistance) (K. pneumoniae ESBL−; Europe, Eucast breakpoints)
1.2%: % R (resistance) (Enterobacter spp; Europe, Eucast breakpoints)
2 µg/mL: MIC90 (K. pneumoniae ESBL+; L. Amer, N=209) | MIC90 (K. pneumoniae ESBL+; N America, N=108) | MIC90 (Acinetobacter spp; Europe, N=43) | MIC90 (A. baumanii; Europe, N=145) | MIC90 (A. baumanii; L. Amer, N=275) | MIC90 (A. baumanii; N America, N=154) | MIC90 (E. cloacae CeftazR; N America, N=77)
2%: % R (resistance) (E. cloacae CeftazS; Asia/Pac, Eucast breakpoints)
≤0.03-2: range of MICs (N <10, shown instead of MIC90) (Acinetobacter spp; L. Amer)
1.1%: % R (resistance) (K. pneumoniae ESBL−; Asia/Pac, Eucast breakpoints)
0.25: range of MICs (N <10, shown instead of MIC90) (E. faecalis VNS; Asia/Pac, N=1)
1 µg/mL: MIC90 (Enterobacter spp; Asia/Pac, N=52) | MIC90 (Enterobacter spp; Europe, N=82) | MIC90 (K. pneumoniae ESBL+; Asia/Pac, N=124) | MIC90 (K. pneumoniae ESBL+; Europe, N=151) | MIC90 (K. oxytoca; L. Amer, N=25) | MIC90 (A. baumanii; Asia/Pac, N=275) | MIC90 (E. cloacae CeftazR; L. Amer, N=42) | MIC90 (E. cloacae CeftazS; L. Amer, N=57)
0.12 µg/mL: MIC90 (E. faecium VS; Asia/Pac, N=106) | MIC90 (E. faecium VS; Europe, N=303) | MIC90 (E. faecium VS; L. Amer, N=51) | MIC90 (E. faecium VNS; L. Amer, N=41)
0.25 µg/mL: MIC90 (MRSA; Asia/Pac, N=428) | MIC90 (MRSA; Europe, N=750) | MIC90 (MRSA; L. Amer, N=506) | MIC90 (MRSA; N America, N=2508) | MIC90 (E. faecalis VNS; N America, N=38) | MIC90 (E. faecium VS; N America, N=115) | MIC90 (E. faecium VNS; Asia/Pac, N=24) | MIC90 (E. faecium VNS; Europe, N=71) | MIC90 (E. faecium VNS; N America, N=478) | MIC90 (E. coli ESBL+; Asia/Pac, N=219) | MIC90 (E. coli ESBL+; L. Amer, N=168) | MIC90 (E. coli ESBL+; N America, N=134) | MIC90 (MR CoNS; Asia/Pac, N=77) | MIC90 (MR CoNS; Europe, N=510) | MIC90 (MR CoNS; L. Amer, N=301) | MIC90 (MR CoNS; N America, N=461) | MIC90 (E. faecalis VS; Asia/Pac, N=214) | MIC90 (E. faecalis VS; Europe, N=669) | MIC90 (E. faecalis VS; L. Amer, N=290) | MIC90 (E. faecalis VS; N America, N=863) | MIC90 (MSSA; Asia/Pac, N=641) | MIC90 (MSSA; Europe, N=2109) | MIC90 (MSSA; L. Amer, N=590) | MIC90 (MSSA; N America, N=2373) | MIC90 (E. coli ESBL−; Asia/Pac, N=282) | MIC90 (E. coli ESBL−; Europe, N=1533) | MIC90 (E. coli ESBL−; L. Amer, N=389) | MIC90 (E. coli ESBL−; N America, N=1172)
